target: T1, recombinant human NK3 receptor (Homo sapiens, UniProt P29371); test: [3H]SR142801 competition binding assay; conditions: membranes from HEK293 cells transiently expressing recombinant human NK3 receptor; [3H]SR142801 radioligand; 75 min at RT; Ki by Cheng-Prussoff; read-out: Data Ki (hNK-3 receptor affinity)
T1 construct: expressed in transfected cells; host or cells: HEK293 cells (transient expression), membranes
T1 sequence (P29371 1-465): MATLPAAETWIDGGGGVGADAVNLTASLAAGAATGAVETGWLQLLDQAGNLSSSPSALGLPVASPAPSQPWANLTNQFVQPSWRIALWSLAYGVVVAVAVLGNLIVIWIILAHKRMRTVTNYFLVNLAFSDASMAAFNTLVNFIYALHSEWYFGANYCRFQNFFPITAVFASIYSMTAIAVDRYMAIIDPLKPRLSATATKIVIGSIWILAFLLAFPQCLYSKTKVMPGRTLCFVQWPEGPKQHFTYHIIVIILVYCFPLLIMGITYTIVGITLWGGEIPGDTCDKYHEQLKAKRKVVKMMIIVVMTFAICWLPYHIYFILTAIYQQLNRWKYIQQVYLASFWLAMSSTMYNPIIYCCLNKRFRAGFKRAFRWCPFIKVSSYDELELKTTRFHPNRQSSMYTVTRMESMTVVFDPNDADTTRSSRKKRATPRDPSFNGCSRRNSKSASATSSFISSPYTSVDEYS
How it was run: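 Membranes from HEK293 cells transiently expressing the receptor, 5 μg protein/well, in 50 mM Tris-HCl pH 7.4 with 4 mM MnCl2, 1 μM phosphoramidon, 0.1% BSA; nonspecific binding defined with 10 μM SB222200. Filtration and scintillation counting; IC50 from Hill fit, Ki by Cheng-Prussoff using saturation-derived KD, duplicates.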

Row | SMILES | Ki
1 | C[C@H](NC(=O)C1(c2ccccc2)CCN(C(=O)c2ccc(-c3ccc(C#N)cc3)cc2)CC1)c1ccccc1 [Example 55, 1-(4′-Cyano-biphenyl-4-carbonyl)-4-piperidine-phenyl-4-carboxylic acid ((S)-1-phenyl-ethyl)-amide] | 14.8 nM
2 | Cc1noc(-c2ccc(C(=O)N3CCC(C(=O)N(C)Cc4ccc(F)cc4)(c4ccccc4)CC3)cc2)n1 [Example 105, 1-[4-(3-Methyl-[1,2,4]oxa-diazol-5-yl)-benzoyl]-4-phenyl-piperidine-4-carboxylic acid (4-fluoro-benzyl)-methyl-amide] | 5.2 nM
3 | C[C@H](NC(=O)C1(c2ccccc2)CCN(C(=O)c2ccc(-c3nnn(C)n3)cc2)CC1)c1ccccc1 [Example 72, 1-[4-(2-Methyl-2H-tetrazol-5-yl)-benzoyl]-4-phenyl-piperidine-4-carboxylic acid ((S)-1-phenyl-ethyl)-amide] | 15.8 nM
4 | C[C@H](NC(=O)C1(c2ccccc2)CCN(C(=O)c2ccc(N3CCCCC3=O)cc2)CC1)c1ccccc1 [Example 63] | 44.9 nM
5 | Cc1ccc(-c2nc(C(=O)N3CCC(C(=O)N[C@@H](C)c4ccccc4)(c4ccccc4)CC3)cs2)cc1 [Example 21, 4-Phenyl-1 - (2-p-tolyl-thiazole-4-carbonyl)-piperidine-4-carboxylic acid ((S)-1-phenyl-ethyl)-amide] | 99.8 nM
6 | C[C@H](NC(=O)C1(c2ccccc2)CCN(C(=O)c2ccc(N3CCS(=O)(=O)CC3)cc2)CC1)c1ccc(F)cc1 [Example 78, 1-[4-(1,1-Dioxo-1λ6-thiomor-pholin-4-yl)-benzoyl]-4-phenyl-piperidine-4-carboxylic acid [(S)-1-(4-fluoro-phenyl)-ethyl]-amide] | 11.8 nM
7 | C[C@H](NC(=O)C1(c2ccccc2)CCN(C(=O)c2ccc(N3CCN(C)CC3)cc2)CC1)c1ccccc1 [Example 14, 1-[4-(4-Methyl-piperazin-1-yl)-benzoyl]-4-phenyl-piperidine-4-carboxylic acid ((S)-l-phenyl-ethyl)-amide] | 98.1 nM
8 | CC[C@H](NC(=O)C1(c2ccccc2)CCN(C(=O)c2ccc(-c3nc(C)no3)cc2)CC1)c1ccccc1 [Example 83, 1-[4-(3-Methyl-[1,2,4]oxa-diazol-5-yl)-benzoyl]-4-phenyl-piperidine 4-carboxylic acid ((S)-1-phenyl-propyl)-amide] | 1.1 nM
9 | C[C@H](NC(=O)C1(c2ccccc2)CCN(C(=O)c2ccc(-c3ccc(F)cc3)cc2)CC1)c1ccc(F)cc1 [Example 79, 1-(4′-Fluoro-biphenyl-4-carbonyl)-4-phenyl-piperidine-4-carboxylic acid [(S)-1-(4-fluoro-phenyl)-ethyl]-amide] | 9.5 nM
10 | Cc1noc(-c2ccc(C(=O)N3CCC(C(=O)N[C@@H](C)c4ccc(F)cc4)(C4CCCCC4)CC3)cc2)n1 [Example 109, 4-Cyclohexyl-1-[4-(3-methyl-[1,2,4]oxa-diazol-5-yl)-benzoyl]-piperidine-4-carboxylic acid [(S)-1-(4-fluoro-phenyl)-ethyl]-amide] | 82 nM
11 | C[C@H](NC(=O)C1(c2ccccc2)CCN(C(=O)c2ccc(-c3ccn(C)n3)cc2)CC1)c1ccccc1 [Example 69, l-[4-(1-Methyl-1 H-pyrazol-3-yl)-benzoyl]-4-phenyl-piperidine-4-carboxylic acid ((S)-1-phenyl-ethyl)-amide] | 77.3 nM
12 | C[C@H](NC(=O)C1(c2ccccc2)CCN(C(=O)c2ccc(-n3cnnn3)cc2)CC1)c1ccccc1 [Example 40, 4-Phenyl-1-(4-tetrazol-1-yl-benzoyl)-piperidine-4-carboxylic acid ((S)-1-phenyl-ethyl)-amide] | 28.5 nM
13 | Cc1nc(-c2ccc(C(=O)N3CCC(C(=O)N[C@@H](C)c4ccc(F)cc4)(C4CCCC4)CC3)cc2)no1 [Example 112, 4- Cyclopentyl-1-[4-(5-methyl-[1,2,4]oxa-diazol-3-yl)-benzoyl]-piperidine-4-carboxylic acid [(S)-1-(4-fluoro-phenyl)-ethyl]-amide] | 82.8 nM
14 | C[C@H](NC(=O)C1(C2CCCC2)CCN(C(=O)c2ccc(-c3ccc(F)cc3)cc2)CC1)c1ccc(F)cc1 [Example 110, 4- Cyclopentyl-1-(4′-fluoro-biphenyl-4-carbonyl)-piperidine-4-carboxylic acid [(S)-1-(4-fluoro-phenyl)-ethyl]-amide] | 52.2 nM
15 | C[C@H](NC(=O)C1(c2ccccc2)CCN(C(=O)c2ccc(-c3ccccc3)nc2)CC1)c1ccccc1 [Example 56] | 20.6 nM

Further lines, results first:

Row | Ki | SMILES
16 | 5.2 nM | C[C@H](NC(=O)C1(c2ccccc2)CCN(C(=O)N2CCC(N3CCSCC3)CC2)CC1)c1ccccc1 [Example 218, 4-Phenyl-1-(4-thiomorpholin-4-yl-piperidine-1-carbonyl)-piperidine-4-carboxylic acid ((S)-1-phenyl-ethyl)-amide]
17 | 17 nM | Cc1nc(-c2ccc(C(=O)N3CCC(C(=O)N[C@@H](C)c4cccc(F)c4)(c4ccc(F)cc4)CC3)cc2)no1 [Example 167, 4-(4-Fluoro-phenyl)-1-[4-(5-methyl-[1,2,4]oxadiazol-3-yl)-benzoyl]-piperidine-4-carboxylic acid [(S)-1-(3-fluoro-phenyl)-ethyl]-amide]
18 | 87 nM | C[C@H](NC(=O)C1(c2ccc(F)cc2)CCN(C(=O)C2CCN(c3ccc(C#N)cn3)CC2)CC1)c1ccc(F)cc1 [Example 156, 1-(5′-Cyano-3,4,5,6-tetrahydro-2H-[1,2′]bipyridinyl-4-carbonyl)-4-(4-fluoro-phenyl)-piperidine-4-carboxylic acid [(S)-1-(4-fluoro-phenyl)-ethyl]-amide]
19 | 64.8 nM | Cc1cccc(N2CCN(C(=O)N3CCC(C(=O)N[C@@H](C)c4ccccc4)(c4ccccc4)CC3)CC2)c1 [Example 226, 4-Phenyl-1-(4-m-tolyl-piperazine-1-carbonyl)-piperidine-4-carboxylic acid ((S)-1-phenyl-ethyl)-amide]
20 | 5.1 nM | O=C(N1CCN(c2ccc(F)cc2)CC1)N1CCC(C(=O)N[C@H](c2cccc(F)c2)C2CC2)(c2ccc(F)cc2)CC1 [Example 199, 4-(4-Fluoro-phenyl)-1-[4-(4-fluoro-phenyl)-piperazine-1-carbonyl]-piperidine-4-carboxylic acid [(S)-cyclopropyl-(3-fluoro-phenyl)-methyl]-amide]
21 | 36.4 nM | O=C(c1ccc(-c2ccc(F)cc2)cc1)N1CCC(C(=O)NC(c2ccccc2)C(F)(F)F)(c2ccc(F)cc2)CC1 (centres unmarked) [Example 145, 1-(4′-Fluoro-biphenyl-4-carbonyl)-4-(4-fluoro-phenyl)-piperidine-4-carboxylic acid (2,2,2-trifluoro-1-phenyl-ethyl)-amide]
22 | 4.6 nM | Cc1noc(-c2ccc(C(=O)N3CCC(C(=O)N[C@@H](C)c4cccc(F)c4)(c4ccc(F)cc4)CC3)cc2)n1 [Example 161, 4-(4-Fluoro-phenyl)-1-[4-(3-methyl-[1,2,4]oxadiazol-5-yl)-benzoyl]-piperidine-4-carboxylic acid [(S)-1-(3-fluoro-phenyl)-ethyl]-amide]
23 | 17.2 nM | C[C@H](NC(=O)C1(c2ccccc2)CCN(C(=O)N2CCC(N3CCCCC3=O)CC2)CC1)c1ccccc1 [Example 216, 1-(2-Oxo-[1,4′]bipiperidinyl-1′-carbonyl)-4-phenyl-piperidine-4-carboxylic acid ((S)-1-phenyl-ethyl)-amide]
24 | 7.4 nM | O=C(c1ccc(-c2ccc(F)cc2)cc1)N1CCC(C(=O)N[C@H](c2cccc(F)c2)C2CC2)(c2ccc(F)cc2)CC1 [Example 193, 1-(4′-Fluoro-biphenyl-4-carbonyl)-4-(4-fluoro-phenyl)-piperidine-4-carboxylci acid [(S)-cyclopropyl-(3-fluoro-phenyl)-methyl]-amide]
25 | 58.4 nM | C[C@H](NC(=O)C1(c2ccccc2)CCN(C(=O)N2CCN(c3cnccn3)CC2)CC1)c1ccccc1 [Example 209, 4-Phenyl-1-(2,3,5,6-tetrahydro-[1,2′]bipyrazinyl-4-carbonyl)-piperidine-4-carboxylic acid ((S)-1-phenyl-ethyl)-amide]
26 | 22.6 nM | Cc1noc(-c2ccc(C(=O)N3CCC(C(=O)NC(C)(C)c4ccccc4)(c4ccccc4)CC3)cc2)n1 [Example 116, 1-[4-(3-Methyl-[1,2,4]oxadiazol-5-yl)-benzoyl]-4-phenyl-piperidine-4-carboxylic acid (1-methyl-1-phenyl-ethyl)-amide]
27 | 54.9 nM | O=C(c1ccc(-c2ccc(F)cc2)cc1)N1CCC(C(=O)NCc2ccc(F)cc2)(c2ccc(F)cc2)CC1 [Example 136, 1-(4′-Fluoro-biphenyl-4-carbonyl)-4-(4-fluoro-phenyl)-piperidine-4-carboxylic acid 4-fluoro-benzylamide]
28 | 50.6 nM | C[C@H](NC(=O)C1(c2ccccc2)CCN(C(=O)N2CCN(c3cc(C#N)ccn3)CC2)CC1)c1ccccc1 [Example 225, 1-[4-(4-Cyano-pyridin-2-yl)-piperazine-1-carbonyl]-4-phenyl-piperidine-4-carboxylic acid ((S)-1-phenyl-ethyl)-amide]
29 | 25.7 nM | CC(C)CC1(C(=O)N[C@@H](C)c2ccc(F)cc2)CCN(C(=O)c2ccc(-c3ccc(F)cc3)cc2)CC1 [Example 122, 1-(4′-Fluoro-biphenyl-4-carbonyl)-4-isobutyl-piperidine-4-carboxylic acid [(S)-1-(4-fluoro-phenyl)-ethyl]-amide]

From patent US8324250B2 (Hoffmann-La Roche Inc., priority 2009, dated 2012)
